These are literature values, as cited in patent US11667623B2, “Scaffold of adenylyl cyclase inhibitors for chronic pain and opioid dependence” (Purdue Research Foundation, priority 2017, dated 2023).

Data set [1] concerns the target T1, hAC1 (Homo sapiens, UniProt Q08828).
T1 construct: expressed in transfected cells
The settings on record: Table 1; data from Brust et al. 2017; cited from earlier work.

Data set [2] addresses T2, hAC2 (Homo sapiens, UniProt Q08462).
T2 construct: expressed in transfected cells
The settings on record: Table 1; at 30 μM; 100 nM PMA; data from Brust et al. 2017; cited from earlier work.

In data set [3] the target is T3, hAC5 (Homo sapiens, UniProt O95622).
T3 construct: expressed in transfected cells
T3 sequence (O95622 whole entry): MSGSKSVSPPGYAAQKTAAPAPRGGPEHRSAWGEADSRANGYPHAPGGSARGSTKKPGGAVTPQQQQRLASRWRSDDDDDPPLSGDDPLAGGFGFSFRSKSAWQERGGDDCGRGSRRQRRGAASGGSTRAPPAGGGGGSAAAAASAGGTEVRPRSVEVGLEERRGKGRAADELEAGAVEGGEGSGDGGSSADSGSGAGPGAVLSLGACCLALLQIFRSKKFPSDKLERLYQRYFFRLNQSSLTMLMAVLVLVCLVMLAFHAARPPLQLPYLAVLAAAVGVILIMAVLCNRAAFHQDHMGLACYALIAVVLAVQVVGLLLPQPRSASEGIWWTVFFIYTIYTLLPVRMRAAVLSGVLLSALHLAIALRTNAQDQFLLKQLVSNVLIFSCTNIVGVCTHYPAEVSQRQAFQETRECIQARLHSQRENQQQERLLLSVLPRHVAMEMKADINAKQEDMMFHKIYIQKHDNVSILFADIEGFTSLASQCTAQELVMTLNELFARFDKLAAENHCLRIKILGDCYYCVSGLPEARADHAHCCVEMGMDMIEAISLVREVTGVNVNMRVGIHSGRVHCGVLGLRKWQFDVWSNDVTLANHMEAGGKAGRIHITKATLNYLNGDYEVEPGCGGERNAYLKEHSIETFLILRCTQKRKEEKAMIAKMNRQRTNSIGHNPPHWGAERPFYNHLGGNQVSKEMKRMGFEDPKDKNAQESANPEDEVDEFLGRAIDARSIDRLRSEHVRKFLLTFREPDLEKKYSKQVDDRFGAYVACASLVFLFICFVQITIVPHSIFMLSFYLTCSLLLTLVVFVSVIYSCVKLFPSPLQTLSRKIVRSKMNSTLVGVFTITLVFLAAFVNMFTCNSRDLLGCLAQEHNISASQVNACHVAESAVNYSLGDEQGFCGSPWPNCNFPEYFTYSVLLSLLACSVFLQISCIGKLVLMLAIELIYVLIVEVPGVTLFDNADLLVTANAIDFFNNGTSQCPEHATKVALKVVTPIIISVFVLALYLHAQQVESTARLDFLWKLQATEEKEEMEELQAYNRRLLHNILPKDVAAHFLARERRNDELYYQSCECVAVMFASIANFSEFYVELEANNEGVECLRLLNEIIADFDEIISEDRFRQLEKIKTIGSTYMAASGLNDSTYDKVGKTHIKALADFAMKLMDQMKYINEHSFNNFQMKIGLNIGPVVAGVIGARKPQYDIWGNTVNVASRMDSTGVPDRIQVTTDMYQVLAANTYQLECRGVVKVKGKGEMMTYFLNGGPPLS
The following applies: Table 1; at 30 μM; 300 nM forskolin; data from Brust et al. 2017; cited from earlier work.

For data set [4], the system named is HEK-AC1 cells. The following applies: data from Brust et al. 2017; cited from earlier work.

T1 sequence (Q08828 whole entry): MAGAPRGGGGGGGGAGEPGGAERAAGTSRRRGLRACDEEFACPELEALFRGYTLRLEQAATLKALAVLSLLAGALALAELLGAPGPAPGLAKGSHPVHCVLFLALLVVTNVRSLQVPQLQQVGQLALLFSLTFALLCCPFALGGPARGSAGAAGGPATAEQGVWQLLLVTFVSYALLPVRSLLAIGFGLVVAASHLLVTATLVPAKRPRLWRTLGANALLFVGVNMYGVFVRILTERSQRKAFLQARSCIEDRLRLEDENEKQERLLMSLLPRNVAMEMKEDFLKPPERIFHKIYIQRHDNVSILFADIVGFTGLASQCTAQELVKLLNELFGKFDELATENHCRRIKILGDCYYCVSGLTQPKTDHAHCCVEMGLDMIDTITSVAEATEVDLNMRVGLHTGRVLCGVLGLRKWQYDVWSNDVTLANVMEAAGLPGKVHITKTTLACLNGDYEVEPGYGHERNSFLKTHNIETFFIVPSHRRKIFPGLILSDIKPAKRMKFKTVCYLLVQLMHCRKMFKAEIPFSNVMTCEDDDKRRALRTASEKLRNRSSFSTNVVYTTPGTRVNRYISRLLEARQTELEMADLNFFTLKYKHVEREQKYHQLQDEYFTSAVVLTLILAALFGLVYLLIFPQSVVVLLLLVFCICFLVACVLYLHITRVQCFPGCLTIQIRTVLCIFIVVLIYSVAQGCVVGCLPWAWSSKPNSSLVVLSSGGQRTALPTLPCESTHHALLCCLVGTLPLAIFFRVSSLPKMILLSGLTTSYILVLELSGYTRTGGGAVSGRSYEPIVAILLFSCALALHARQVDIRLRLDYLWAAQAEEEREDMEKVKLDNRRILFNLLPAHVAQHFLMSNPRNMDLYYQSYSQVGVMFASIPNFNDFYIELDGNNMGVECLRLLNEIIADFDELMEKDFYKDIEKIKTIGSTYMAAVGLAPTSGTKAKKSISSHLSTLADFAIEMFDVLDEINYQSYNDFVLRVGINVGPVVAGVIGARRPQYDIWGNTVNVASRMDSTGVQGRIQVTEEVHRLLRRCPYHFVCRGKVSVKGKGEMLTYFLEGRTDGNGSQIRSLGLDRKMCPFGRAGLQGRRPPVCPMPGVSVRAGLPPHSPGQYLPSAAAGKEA
T2 sequence (Q08462 whole entry): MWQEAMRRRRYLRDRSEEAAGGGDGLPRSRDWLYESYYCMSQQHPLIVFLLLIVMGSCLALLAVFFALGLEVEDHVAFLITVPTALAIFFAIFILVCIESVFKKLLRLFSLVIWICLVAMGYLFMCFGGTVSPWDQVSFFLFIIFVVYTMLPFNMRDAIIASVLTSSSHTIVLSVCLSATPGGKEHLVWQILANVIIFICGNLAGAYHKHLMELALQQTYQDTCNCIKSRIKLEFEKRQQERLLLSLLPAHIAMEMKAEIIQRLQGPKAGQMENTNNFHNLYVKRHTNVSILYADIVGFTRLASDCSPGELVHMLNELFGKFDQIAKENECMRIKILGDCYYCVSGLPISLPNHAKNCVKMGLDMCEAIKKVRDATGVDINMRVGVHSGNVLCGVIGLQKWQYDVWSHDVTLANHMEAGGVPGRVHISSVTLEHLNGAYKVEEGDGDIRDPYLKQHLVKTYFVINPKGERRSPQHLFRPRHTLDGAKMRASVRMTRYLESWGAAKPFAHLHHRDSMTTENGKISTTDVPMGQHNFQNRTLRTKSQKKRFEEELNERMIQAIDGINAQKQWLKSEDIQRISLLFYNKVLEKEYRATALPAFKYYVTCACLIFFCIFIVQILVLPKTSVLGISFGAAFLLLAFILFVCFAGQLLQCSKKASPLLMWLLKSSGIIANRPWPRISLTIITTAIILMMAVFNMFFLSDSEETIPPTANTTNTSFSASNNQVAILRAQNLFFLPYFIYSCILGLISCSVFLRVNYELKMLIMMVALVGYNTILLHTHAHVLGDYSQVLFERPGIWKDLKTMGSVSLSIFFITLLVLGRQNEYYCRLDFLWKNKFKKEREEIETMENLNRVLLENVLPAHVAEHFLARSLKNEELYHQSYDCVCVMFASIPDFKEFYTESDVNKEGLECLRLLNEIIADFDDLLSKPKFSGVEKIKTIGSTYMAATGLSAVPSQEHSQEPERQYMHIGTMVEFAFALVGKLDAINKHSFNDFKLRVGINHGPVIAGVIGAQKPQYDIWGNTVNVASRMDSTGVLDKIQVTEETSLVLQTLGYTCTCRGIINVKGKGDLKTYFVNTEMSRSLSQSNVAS

Consider `O=c1cc(C(Cl)(Cl)Cl)oc2ccc(Cl)cc12` [ST034307, 6-chloro-2-(trichloromethyl)-4H-chromen-4-one], for which the “hAC1 % Inhib” value in data set [1] is listed as 108 ± 10%. The “hAC2 % Inhib” value in data set [2] is recorded as −142%. The “hAC5 % Inhib” value in data set [3] is listed as −44%. In addition, the “Viability % Veh” value in data set [4] is 85 ± 6 % Veh.
